Numbered stars: 1 amine (or outer) side, 2 acyl side, 3 side chain; on linkers, the order of the positions; unused ones are H or OH. Bridge positions count the residues as written; N and C are the ends. Square brackets hold non-standard residues; d marks the D form. Peptide text beside a SMILES is read from it. * marks the point of attachment. X26 = O=C([C@H](Cc1ccc(-c2cccc(S(=O)(=O)N3CCOCC3)c2)cc1)N[*:1])[*:2]; X45 = CNS(=O)(=O)c1cccc(-c2ccc(C[C@H](N[*:1])C(=O)[*:2])cc2)c1; Bip(4'-COOH) = N[C@@H](Cc1ccc(-c2ccc(C(=O)O)cc2)cc1)C(=O)O; Bip(4'-NHAc) = CC(=O)Nc1ccc(-c2ccc(C[C@H](N)C(=O)O)cc2)cc1; Phe(3-CF3) = N[C@@H](Cc1cccc(C(F)(F)F)c1)C(=O)O; Ala(morpholin-4-yl) = N[C@@H](CN1CCOCC1)C(=O)O; Phe(4-CONH2) = NC(=O)c1ccc(C[C@H](N)C(=O)O)cc1; Phe(4-COOH) = N[C@@H](Cc1ccc(C(=O)O)cc1)C(=O)O; X5 = CS(=O)(=O)NC(=O)C[C@H](N[*:1])C(=O)[*:2]; Bip = N[C@@H](Cc1ccc(-c2ccccc2)cc1)C(=O)O; Phe(3-Me) = Cc1cccc(C[C@H](N)C(=O)O)c1; Abu(3S-NH2) = C[C@H](N)[C@H](N)C(=O)O; Cha = N[C@@H](CC1CCCCC1)C(=O)O; aThr = C[C@H](O)[C@H](N)C(=O)O; Carboxymethyl = O=C(O)C*; NMeA = CN[C@@H](C)C(=O)O; Orn = NCCC[C@H](N)C(=O)O; Dab = NCC[C@H](N)C(=O)O; X48 = CN(C)S(=O)(=O)O*; X42 = CS(=O)(=O)O*; X43 = c1coc(N*)n1
target: T1, Alexa fluor-647 labeled human PD-L1-Ig binding to Jurkat cell line over-expressing human PD-1 (Homo sapiens, UniProt Q15116); test: Jurkat-PD-1 Cell Binding High-Content Screening Assay (CBA): Method 3 (Alexa fluor-647 labeled PD-L1-Ig); details: Jurkat-PD-1 cells, Alexa fluor-647 labeled PD-L1-Ig 177 nM; head μM; read-out: CBA Method 3 μM
T1 construct: expressed in transfected cells; host or cells: Jurkat
Procedure: Jurkat-PD-1 Cell Binding High-Content Screening Assay (CBA): Method 3
Alexa fluor-647 was covalently linked to the Ig epitope tag of human PD-L1-Ig and fluorescently labeled PD-L1-Ig was used for the binding studies with a Jurkat cell line over-expressing human PD-1. Briefly, 2.5×10^4 Jurkat-hPD-1 cells were seeded into 384 well plates in 20 μl of RPMI supplemented with 10% fetal calf serum. 12.5 nl of compound was added to cells followed by incubation at 37° C. for 2 hours. Then, 10 ul of Alexa fluor-647 labeled PD-L1-Ig (177 nM final), diluted in RPMI supplemented with 10% fetal calf serum was added to the cells and incubated for 1 hour. Cells were then fixed with 4% paraformaldehyde containing 10 μg/ml Hoechst 33342 and then washed 3× in 100 ul PBS and 100 ul of PBS was added in the final step. Data was collected using the Operetta High Content Imager and the data was analyzed using the columbus software.

T1 sequence (Q15116 25-288): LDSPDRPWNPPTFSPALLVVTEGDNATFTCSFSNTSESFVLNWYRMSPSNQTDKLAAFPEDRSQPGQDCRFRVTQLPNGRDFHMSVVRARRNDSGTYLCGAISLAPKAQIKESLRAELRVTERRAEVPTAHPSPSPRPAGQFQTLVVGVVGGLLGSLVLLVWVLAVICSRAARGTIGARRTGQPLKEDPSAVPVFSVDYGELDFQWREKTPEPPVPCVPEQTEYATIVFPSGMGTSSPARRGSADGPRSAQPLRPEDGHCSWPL

IC50	SMILES
0.33 µM	Cc1cccc(C[C@@H]2NC(=O)[C@H](CC(=O)O)NC(=O)[C@H](Cc3ccc(OCC(=O)O)cc3)NC(=O)[C@H](CN3CCOCC3)NC(=O)CSC[C@@H](C(=O)N[C@@H](CCN)C(N)=O)NC(=O)[C@H](CCCN)NC(=O)[C@H](C(C)C)NC(=O)[C@H](CC3CCCCC3)NC(=O)[C@H](CCN)NC(=O)[C@@H](CC(C)C)NC(=O)[C@H](C)N(C)C(=O)[C@H](CCC(N)=O)NC(=O)[C@H](Cc3ccc(-c4ccccc4)cc3)NC(=O)[C@H](Cc3ccc(-c4cccc(S(=O)(=O)N5CCOCC5)c4)cc3)NC2=O)c1 [Example 5107] ({CH2CO}-[Ala(morpholin-4-yl)]Y(Carboxymethyl)D[Phe(3-Me)][X26][Bip]Q[NMeA][dL][Dab][Cha]V[Orn]C[Dab]-NH2; thioether N-14)
0.1 µM	CC(=O)Nc1ccc(-c2ccc(C[C@@H]3NC(=O)[C@H](Cc4cccc(C(F)(F)F)c4)NC(=O)[C@H](CC(=O)OS(C)(=O)=O)NC(=O)[C@H](Cc4ccc(C(=O)O)cc4)NC(=O)[C@H]([C@H](C)N)NC(=O)CSC[C@@H](C(=O)N[C@@H](CCN)C(N)=O)NC(=O)[C@H](CC(N)=O)NC(=O)[C@H](C(C)C)NC(=O)[C@H](CC4CCCCC4)NC(=O)[C@H](CCN)NC(=O)[C@@H](CC(C)C)NC(=O)[C@H](C)N(C)C(=O)[C@H](Cc4ccc(C(N)=O)cc4)NC(=O)[C@H](Cc4ccc(-c5ccccc5)cc4)NC3=O)cc2)cc1 [Example 5112] ({CH2CO}-[Abu(3S-NH2)][Phe(4-COOH)]D(X42)[Phe(3-CF3)][Bip(4'-NHAc)][Bip][Phe(4-CONH2)][NMeA][dL][Dab][Cha]VNC[Dab]-NH2; thioether N-14)
0.15 µM	CC(C)C[C@H]1NC(=O)[C@H](C)N(C)C(=O)[C@H](Cc2ccc(C(N)=O)cc2)NC(=O)[C@H](Cc2ccc(-c3ccccc3)cc2)NC(=O)[C@H](Cc2ccc(C(=O)O)cc2)NC(=O)[C@H](Cc2cccc(C(F)(F)F)c2)NC(=O)[C@H](CC(=O)OS(=O)(=O)N(C)C)NC(=O)[C@H](Cc2ccc(C(=O)O)cc2)NC(=O)[C@H]([C@H](C)N)NC(=O)CSC[C@@H](C(=O)N[C@@H](CCN)C(N)=O)NC(=O)[C@H](CC(N)=O)NC(=O)[C@H](C(C)C)NC(=O)[C@H](CC2CCCCC2)NC(=O)[C@H](CCN)NC1=O [Example 5113] ({CH2CO}-[Abu(3S-NH2)][Phe(4-COOH)]D(X48)[Phe(3-CF3)][Phe(4-COOH)][Bip][Phe(4-CONH2)][NMeA][dL][Dab][Cha]VNC[Dab]-NH2; thioether N-14)
0.11 µM	CC(=O)Nc1ccc(-c2ccc(C[C@@H]3NC(=O)[C@H](Cc4cccc(C(F)(F)F)c4)NC(=O)[C@H](CC(=O)NS(C)(=O)=O)NC(=O)[C@H](Cc4ccc(C(N)=O)cc4)NC(=O)[C@H](CC(C)C)NC(=O)CSC[C@@H](C(=O)N[C@@H](CCN)C(N)=O)NC(=O)[C@H](CC(N)=O)NC(=O)[C@H](C(C)C)NC(=O)[C@H](CC4CCCCC4)NC(=O)[C@H](CCN)NC(=O)[C@@H](CC(C)C)NC(=O)[C@H](C)N(C)C(=O)[C@H](Cc4ccc(C(N)=O)cc4)NC(=O)[C@H](Cc4ccc(-c5ccccc5)cc4)NC3=O)cc2)cc1 [Example 5114] ({CH2CO}-L[Phe(4-CONH2)][X5][Phe(3-CF3)][Bip(4'-NHAc)][Bip][Phe(4-CONH2)][NMeA][dL][Dab][Cha]VNC[Dab]-NH2; thioether N-14)
0.28 µM	CC(=O)Nc1ccc(-c2ccc(C[C@@H]3NC(=O)[C@H](Cc4cccc(C(F)(F)F)c4)NC(=O)[C@H](CC(=O)NS(C)(=O)=O)NC(=O)[C@H](Cc4ccc(C(N)=O)cc4)NC(=O)[C@H]([C@H](C)O)NC(=O)CSC[C@@H](C(=O)N[C@@H](CCN)C(N)=O)NC(=O)[C@H](CC(N)=O)NC(=O)[C@H](C(C)C)NC(=O)[C@H](CC4CCCCC4)NC(=O)[C@H](CCN)NC(=O)[C@@H](CC(C)C)NC(=O)[C@H](C)N(C)C(=O)[C@H](Cc4ccc(C(N)=O)cc4)NC(=O)[C@H](Cc4ccc(-c5ccccc5)cc4)NC3=O)cc2)cc1 [Example 5115] ({CH2CO}-[aThr][Phe(4-CONH2)][X5][Phe(3-CF3)][Bip(4'-NHAc)][Bip][Phe(4-CONH2)][NMeA][dL][Dab][Cha]VNC[Dab]-NH2; thioether N-14)
0.33 µM	CC(C)C[C@H]1NC(=O)[C@H](C)N(C)C(=O)[C@H](CCCN)NC(=O)[C@H](Cc2ccc(-c3ccccc3)cc2)NC(=O)[C@H](Cc2ccc(-c3ccc(C(=O)O)cc3)cc2)NC(=O)[C@H](Cc2cccc(C(F)(F)F)c2)NC(=O)[C@H](CC(=O)Nc2ncco2)NC(=O)[C@H](Cc2ccc(-c3ccc(C(=O)O)cc3)cc2)NC(=O)[C@H](Cc2ccc(OCC(=O)O)cc2)NC(=O)CSC[C@@H](C(=O)N[C@@H](CCN)C(N)=O)NC(=O)[C@H](CC(N)=O)NC(=O)[C@H](C(C)C)NC(=O)[C@H](CC2CCCCC2)NC(=O)[C@H](CCN)NC1=O [Example 5116] ({CH2CO}-Y(Carboxymethyl)[Bip(4'-COOH)]D(X43)[Phe(3-CF3)][Bip(4'-COOH)][Bip][Orn][NMeA][dL][Dab][Cha]VNC[Dab]-NH2; thioether N-14)

same assay, conditions: Jurkat-PD-1 cells, Alexa fluor-647 labeled PD-L1-Ig 177 nM; nM; read-out: CBA Method 3

IC50	SMILES
0.0073 µM	CNS(=O)(=O)c1cccc(-c2ccc(C[C@@H]3NC(=O)[C@H](Cc4cccc(C)c4)NC(=O)[C@H](CC(=O)O)NC(=O)[C@H](Cc4ccc(OCC(=O)O)cc4)NC(=O)[C@H](CN4CCOCC4)NC(=O)CSC[C@@H](C(=O)N[C@@H](CCN)C(N)=O)NC(=O)[C@H](CCCN)NC(=O)[C@H](C(C)C)NC(=O)[C@H](CC4CCCCC4)NC(=O)[C@H](CCN)NC(=O)[C@@H](CC(C)C)NC(=O)[C@H](C)N(C)C(=O)[C@H](CCC(N)=O)NC(=O)[C@H](Cc4ccc(-c5ccccc5)cc4)NC3=O)cc2)c1 [Example 5108] ({CH2CO}-[Ala(morpholin-4-yl)]Y(Carboxymethyl)D[Phe(3-Me)][X45][Bip]Q[NMeA][dL][Dab][Cha]V[Orn]C[Dab]-NH2; thioether N-14)
0.0044 µM	CC(=O)Nc1ccc(-c2ccc(C[C@@H]3NC(=O)[C@H](Cc4cccc(C(F)(F)F)c4)NC(=O)[C@H](CC(=O)O)NC(=O)[C@H](Cc4ccc(C(=O)O)cc4)NC(=O)[C@H]([C@H](C)N)NC(=O)CSC[C@@H](C(=O)N[C@@H](CCN)C(N)=O)NC(=O)[C@H](CC(N)=O)NC(=O)[C@H](C(C)C)NC(=O)[C@H](CC4CCCCC4)NC(=O)[C@H](CCN)NC(=O)[C@@H](CC(C)C)NC(=O)[C@H](C)N(C)C(=O)[C@H](Cc4ccc(C(N)=O)cc4)NC(=O)[C@H](Cc4ccc(-c5ccccc5)cc4)NC3=O)cc2)cc1 [Example 5109] ({CH2CO}-[Abu(3S-NH2)][Phe(4-COOH)]D[Phe(3-CF3)][Bip(4'-NHAc)][Bip][Phe(4-CONH2)][NMeA][dL][Dab][Cha]VNC[Dab]-NH2; thioether N-14)
0.0088 µM	CC(=O)Nc1ccc(-c2ccc(C[C@@H]3NC(=O)[C@H](Cc4cccc(C(F)(F)F)c4)NC(=O)[C@H](CC(=O)O)NC(=O)[C@H](Cc4ccc(C(N)=O)cc4)NC(=O)[C@H]([C@H](C)N)NC(=O)CSC[C@@H](C(=O)N[C@@H](CCN)C(N)=O)NC(=O)[C@H](CC(N)=O)NC(=O)[C@H](C(C)C)NC(=O)[C@H](CC4CCCCC4)NC(=O)[C@H](CCN)NC(=O)[C@@H](CC(C)C)NC(=O)[C@H](C)N(C)C(=O)[C@H](Cc4ccc(C(N)=O)cc4)NC(=O)[C@H](Cc4ccc(-c5ccccc5)cc4)NC3=O)cc2)cc1 [Example 5110] ({CH2CO}-[Abu(3S-NH2)][Phe(4-CONH2)]D[Phe(3-CF3)][Bip(4'-NHAc)][Bip][Phe(4-CONH2)][NMeA][dL][Dab][Cha]VNC[Dab]-NH2; thioether N-14)
0.0047 µM	CC(=O)Nc1ccc(-c2ccc(C[C@@H]3NC(=O)[C@H](Cc4cccc(C(F)(F)F)c4)NC(=O)[C@H](CC(=O)O)NC(=O)[C@H](Cc4ccc(C(=O)O)cc4)NC(=O)[C@H](CN4CCOCC4)NC(=O)CSC[C@@H](C(=O)N[C@@H](CCN)C(N)=O)NC(=O)[C@H](CC(N)=O)NC(=O)[C@H](C(C)C)NC(=O)[C@H](CC4CCCCC4)NC(=O)[C@H](CCN)NC(=O)[C@@H](CC(C)C)NC(=O)[C@H](C)N(C)C(=O)[C@H](CCCN)NC(=O)[C@H](Cc4ccc(-c5ccccc5)cc4)NC3=O)cc2)cc1 [Example 5111] ({CH2CO}-[Ala(morpholin-4-yl)][Phe(4-COOH)]D[Phe(3-CF3)][Bip(4'-NHAc)][Bip][Orn][NMeA][dL][Dab][Cha]VNC[Dab]-NH2; thioether N-14)
0.0097 µM	CC(C)C[C@H]1NC(=O)[C@H](C)N(C)C(=O)[C@H](Cc2ccc(OCC(=O)O)cc2)NC(=O)[C@H](Cc2ccc(-c3ccccc3)cc2)NC(=O)[C@H](Cc2ccc(OCC(=O)O)cc2)NC(=O)[C@H](Cc2c[nH]c3ccccc23)NC(=O)[C@H](CC(=O)O)NC(=O)[C@H](Cc2ccc(-c3ccc(C(=O)O)cc3)cc2)NC(=O)[C@H](CN2CCOCC2)NC(=O)CSC[C@@H](C(=O)N[C@@H](CCN)C(N)=O)NC(=O)[C@H](CCC(=O)O)NC(=O)[C@H](C(C)C)NC(=O)[C@H](CC2CCCCC2)NC(=O)[C@H](CCN)NC1=O [Example 5117] ({CH2CO}-[Ala(morpholin-4-yl)][Bip(4'-COOH)]DWY(Carboxymethyl)[Bip]Y(Carboxymethyl)[NMeA][dL][Dab][Cha]VEC[Dab]-NH2; thioether N-14)
0.0017 µM	CC(=O)Nc1ccc(-c2ccc(C[C@@H]3NC(=O)[C@H](Cc4cccc(C(F)(F)F)c4)NC(=O)[C@H](CC(=O)O)NC(=O)[C@H](Cc4ccc(C(=O)O)cc4)NC(=O)[C@H]([C@H](C)N)NC(=O)CSC[C@@H](C(=O)N[C@@H](CCN)C(N)=O)NC(=O)[C@H](CCC(=O)O)NC(=O)[C@H](C(C)C)NC(=O)[C@H](CC4CCCCC4)NC(=O)[C@H](CCN)NC(=O)[C@@H](CC(C)C)NC(=O)[C@H](C)N(C)C(=O)[C@H](Cc4ccc(C(N)=O)cc4)NC(=O)[C@H](Cc4ccc(-c5ccccc5)cc4)NC3=O)cc2)cc1 [Example 5118] ({CH2CO}-[Abu(3S-NH2)][Phe(4-COOH)]D[Phe(3-CF3)][Bip(4'-NHAc)][Bip][Phe(4-CONH2)][NMeA][dL][Dab][Cha]VEC[Dab]-NH2; thioether N-14)
